Where two headings read alike, the source gives them in different places.
Tests used:
Assay type in all cases: biochemical
[1] = target: T1, recombinant alpha-glucosidase I (human full-length glucosidase I, Glu 1) (Homo sapiens, UniProt Q13724); assay: Alpha-glucosidase I assay (Amplex Red glucose detection, synthetic trisaccharide substrate)
T1 construct: 6-His (C); made in house; host or cells: HEK-293T cells transduced with BacMam virus (virus raised in Sf9)
T1 sequence (Q13724 1-837): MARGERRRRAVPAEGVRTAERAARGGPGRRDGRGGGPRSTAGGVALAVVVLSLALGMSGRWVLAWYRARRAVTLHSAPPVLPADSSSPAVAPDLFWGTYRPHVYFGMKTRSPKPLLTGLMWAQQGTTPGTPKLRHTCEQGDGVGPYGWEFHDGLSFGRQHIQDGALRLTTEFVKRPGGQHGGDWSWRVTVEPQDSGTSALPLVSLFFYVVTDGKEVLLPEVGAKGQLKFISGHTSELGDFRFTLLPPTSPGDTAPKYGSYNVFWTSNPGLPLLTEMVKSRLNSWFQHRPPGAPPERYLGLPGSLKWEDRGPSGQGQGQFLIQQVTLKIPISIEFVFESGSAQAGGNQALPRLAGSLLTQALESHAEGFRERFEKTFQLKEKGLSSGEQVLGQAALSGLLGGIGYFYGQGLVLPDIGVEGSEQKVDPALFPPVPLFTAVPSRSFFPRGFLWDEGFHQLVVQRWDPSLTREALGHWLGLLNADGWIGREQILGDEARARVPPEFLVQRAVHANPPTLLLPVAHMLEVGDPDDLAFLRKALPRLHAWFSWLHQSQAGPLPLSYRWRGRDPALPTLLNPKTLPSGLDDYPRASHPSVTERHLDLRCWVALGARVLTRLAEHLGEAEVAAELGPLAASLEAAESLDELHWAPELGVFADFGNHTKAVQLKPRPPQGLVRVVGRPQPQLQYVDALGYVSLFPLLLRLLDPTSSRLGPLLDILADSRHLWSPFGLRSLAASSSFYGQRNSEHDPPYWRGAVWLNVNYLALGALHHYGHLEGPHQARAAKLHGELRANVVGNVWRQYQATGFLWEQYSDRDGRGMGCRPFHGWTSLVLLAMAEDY
Method in brief: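 Human full-length glucosidase I, His-tagged, […] and Ni-purified. Enzyme preincubated with compound dilutions 60 min at 37° C, then synthetic trisaccharide substrate 90 min at 37° C; stopped with 1.5M Tris pH 8.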

[2] = target: recombinant human GAA (acid alpha-glucosidase) (Homo sapiens, UniProt P10253); assay: Acid alpha-glucosidase (GAA) assay (4-methylumbelliferyl-alpha-D-pyranoside substrate, fluorescence)
Method in brief: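 Recombinant human enzyme preincubated 60 min at 37 °C with compound dilutions, then 4-methylumbelliferyl-alpha-D-pyranoside substrate added for 20 min at 37 °C. Stopped with glycine/NaOH pH 10; methylumbelliferone fluorescence (ex 365, em 440 nm) versus untreated enzyme; IC50 by 4-PL fit.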

[3] = target: rat maltase (partially purified alpha-glucosidase from intestinal rat powder); assay: Intestinal alpha-glucosidase assay, maltose substrate (Glucose GO Kit)
Method in brief: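 Glucose release is the read-out: compounds at multiple dilutions are first held with partially purified rat intestinal alpha-glucosidase for 60 min at 37 °C, after which maltose or sucrose substrate reacts for 30 min at 37 °C before a 5 min 90 °C stop. IC50 comes from a four-parameter logistic fit.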

[4] = target: rat sucrase (partially purified alpha-glucosidase from intestinal rat powder) (Rattus norvegicus, UniProt P23739); assay: Intestinal alpha-glucosidase assay, sucrose substrate (Glucose GO Kit)
Sequence of rat sucrase (partially purified alpha-glucosidase from intestinal rat powder) (P23739 whole entry): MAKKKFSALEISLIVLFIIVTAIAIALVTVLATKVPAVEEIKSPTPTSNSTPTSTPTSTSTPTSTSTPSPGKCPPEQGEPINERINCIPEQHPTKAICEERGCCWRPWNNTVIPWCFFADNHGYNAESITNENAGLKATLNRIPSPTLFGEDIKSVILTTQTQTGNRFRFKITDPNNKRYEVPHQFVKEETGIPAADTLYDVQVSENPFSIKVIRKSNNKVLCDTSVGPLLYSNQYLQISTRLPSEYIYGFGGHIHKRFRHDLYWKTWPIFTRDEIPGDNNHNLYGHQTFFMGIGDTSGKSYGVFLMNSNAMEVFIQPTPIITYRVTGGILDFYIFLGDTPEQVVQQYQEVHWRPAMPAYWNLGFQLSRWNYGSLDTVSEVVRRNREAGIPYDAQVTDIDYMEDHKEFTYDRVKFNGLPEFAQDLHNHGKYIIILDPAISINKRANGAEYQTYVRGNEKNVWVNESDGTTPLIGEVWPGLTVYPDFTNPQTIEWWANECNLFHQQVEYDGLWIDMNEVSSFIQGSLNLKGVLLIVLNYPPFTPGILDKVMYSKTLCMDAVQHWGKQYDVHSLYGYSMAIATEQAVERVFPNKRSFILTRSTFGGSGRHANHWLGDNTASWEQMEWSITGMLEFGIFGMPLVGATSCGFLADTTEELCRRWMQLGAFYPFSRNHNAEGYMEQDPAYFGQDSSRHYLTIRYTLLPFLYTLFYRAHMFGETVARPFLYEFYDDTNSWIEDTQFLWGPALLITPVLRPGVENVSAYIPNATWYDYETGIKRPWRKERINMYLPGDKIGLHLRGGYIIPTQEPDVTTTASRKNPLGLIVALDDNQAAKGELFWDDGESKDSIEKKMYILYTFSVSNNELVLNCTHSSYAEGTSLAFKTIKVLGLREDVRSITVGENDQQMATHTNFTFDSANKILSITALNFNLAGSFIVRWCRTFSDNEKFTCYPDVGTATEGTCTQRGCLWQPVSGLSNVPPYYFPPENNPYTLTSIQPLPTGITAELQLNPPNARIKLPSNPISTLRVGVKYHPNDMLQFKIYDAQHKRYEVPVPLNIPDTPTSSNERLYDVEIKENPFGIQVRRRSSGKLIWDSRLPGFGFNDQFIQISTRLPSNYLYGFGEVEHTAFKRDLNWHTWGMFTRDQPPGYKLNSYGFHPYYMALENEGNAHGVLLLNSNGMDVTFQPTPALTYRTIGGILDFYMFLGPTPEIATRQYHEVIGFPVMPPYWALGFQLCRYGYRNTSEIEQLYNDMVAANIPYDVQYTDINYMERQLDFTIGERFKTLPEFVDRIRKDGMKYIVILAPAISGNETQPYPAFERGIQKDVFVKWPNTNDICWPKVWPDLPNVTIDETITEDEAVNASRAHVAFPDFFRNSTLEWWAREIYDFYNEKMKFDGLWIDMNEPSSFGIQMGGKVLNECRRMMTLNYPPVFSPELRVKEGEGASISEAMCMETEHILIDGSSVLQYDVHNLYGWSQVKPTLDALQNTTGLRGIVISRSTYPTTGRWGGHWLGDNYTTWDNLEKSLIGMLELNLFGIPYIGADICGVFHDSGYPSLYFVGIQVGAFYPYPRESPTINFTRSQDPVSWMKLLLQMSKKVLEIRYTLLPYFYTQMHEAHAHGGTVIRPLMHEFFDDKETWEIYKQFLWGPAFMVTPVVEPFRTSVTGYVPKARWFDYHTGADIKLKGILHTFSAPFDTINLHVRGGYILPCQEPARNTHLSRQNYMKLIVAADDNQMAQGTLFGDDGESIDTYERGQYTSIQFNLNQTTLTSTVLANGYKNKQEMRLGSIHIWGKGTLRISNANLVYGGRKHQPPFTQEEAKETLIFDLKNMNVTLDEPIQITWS
Method in brief: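 Enzyme from intestinal rat powder, partially purified, is exposed to compound for 60 min at 37 °C. Disaccharide substrate (maltose or sucrose respectively) then reacts 30 min at 37 °C. Heat-stopped samples are assayed for glucose, and percent inhibition versus concentration gives IC50 via 4-PL.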

[5] = Glucosidase 1, read-out: Glu 1 IC50

Structure (SMILES)	IC50 [1, 5] [nM]	IC50 [2] [nM]	IC50 [3] [nM]	IC50 [4] [nM]	IC50 [1] [nM]
[N-]=[N+]=Nc1ccc(NCCc2ccc(CCN3C[C@H](O)[C@@H](O)[C@H](O)[C@H]3CO)s2)c([N+](=O)[O-])c1 [Compound 1186, (2R,3R,4R,5S)-1-[2-(5-{2-[(4-azido-2-nitrophenyl)amino]ethyl}hiophen-2-yl)ethyl]-2-(hydroxymethyl)piperidine-3,4,5-triol]	3	263	5	175	–
[N-]=[N+]=Nc1ccc(NCCNc2cc(Cl)cc(CCN3C[C@H](O)[C@@H](O)[C@H](O)[C@H]3CO)c2)c([N+](=O)[O-])c1 [Compound 1143, (2R,3R,4R,5S)-1-{2-[3-({2-[(4-azido-2-nitrophenyl)amino]ethyl}amino)-5-chlorophenyl]ethyl}-2-(hydroxymethyl)piperidine-3,4,5-triol]	334	796	2060	2010	–
OC[C@@H]1[C@@H](O)[C@H](O)[C@@H](O)CN1CCCCCCNc1ccc(-c2cccnn2)cc1Cl [Compound 1202, (2R,3R,4R,5S)-1-(6-{[2-chloro-4-(pyridazin-3-yl)phenyl]amino}hexyl)-2-(hydroxymethyl)piperidine-3,4,5-triol]	< 1	39	< 1	< 1	–
[N-]=[N+]=Nc1ccc(NCCc2ccc(CCN3C[C@H](O)[C@@H](O)[C@H](O)[C@H]3CO)cc2)c([N+](=O)[O-])c1 [Compound 1200, (2R,3R,4R,5S)-1-[2-(4-{2-[(4-azido-2-nitrophenyl)amino]ethyl}phenyl)ethyl]-2-(hydroxymethyl)piperidine-3,4,5-triol]	31	1160	81	746	–
OC[C@@H]1[C@@H](O)[C@H](O)[C@@H](O)CN1Cc1ccc(CNc2ccc(N3CCOCC3)cc2)cc1 [Compound 1068]	–	386	49	141	122
Cc1cc(NCc2cccc(CN3C[C@H](O)[C@@H](O)[C@H](O)[C@H]3CO)c2)cc(-c2ncccn2)c1 [Compound 1035, (2R,3R,4R,5S)-2-(hydroxymethyl)-1-{[3-({[3-methyl-5-(pyrimidin-2-yl)phenyl]amino}methyl)phenyl]methyl}piperidine-3,4,5-triol]	–	5100	49	51	44
CS(=O)(=O)Nc1ccc(NCCCCCCN2C[C@H](O)[C@@H](O)[C@H](O)[C@H]2CO)c([N+](=O)[O-])c1 [Compound 1300, N-[3-nitro-4-({6-[(2R,3R,4R,5S)-3,4,5-trihydroxy-2-(hydroxy-methyl)piperidin-1-yl]hexyl}amino)phenyl]methanesulfonamide]	–	20	< 10	52	157
CS(=O)(=O)c1cc(NCc2ccc(CN3C[C@H](O)[C@@H](O)[C@H](O)[C@H]3CO)cc2)cc(-c2cccnn2)c1 [Compound 1058, (2R,3R,4R,5S)-2-(hydroxymethyl)-1-{[4-({[3-methanesulfonyl-5-(pyridazin-3-yl)phenyl]amino}methyl)phenyl]methyl}piperidine-3,4,5-triol]	–	78	8	46	21
OC[C@@H]1[C@@H](O)[C@H](O)[C@@H](O)CN1Cc1ccc(CNc2cc(C3CC3)cc(N3CCOCC3)c2)cc1 [Compound 1010, (2R,3R,4R,5S)-1-{[4-({[3-cyclopropyl-5-(morpholin-4-yl)phenyl]amino}methyl)phenyl]methyl}-2-(hydroxymethyl)piperidine-3,4,5-triol]	199	359	12	96	–
